In patent US12492193B2, “Pyrazole derivatives for the treatment of cystic fibrosis” (Fondazione Istituto Italiano Di Tecnologia, priority 2017, dated 2025):

Target: T1, mutant CFTR (Homo sapiens, UniProt P13569, DEL508-508)
T1 construct: expressed in transfected cells
Test: Fluorescence (HS-YFP) assay for CFTR activity, corrector assay
Assay type: cell-based
Conditions: CFBE41o- and FRT cells with stable expression of mutant CFTR, 24 h compound treatment
How it was run: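 CFBE41o- or FRT cells stably expressing mutant CFTR and HS-YFP were exposed to compounds for 24 h (corrector mode), then stimulated 30 min at 37° C with forskolin (20 μM) plus genistein (50 μM). YFP quenching after 100 mM iodide injection; initial slope from exponential fit of final 10 s; EC50 reported.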

T1 sequence (P13569 with tags, fused parts or gaps DEL508-508): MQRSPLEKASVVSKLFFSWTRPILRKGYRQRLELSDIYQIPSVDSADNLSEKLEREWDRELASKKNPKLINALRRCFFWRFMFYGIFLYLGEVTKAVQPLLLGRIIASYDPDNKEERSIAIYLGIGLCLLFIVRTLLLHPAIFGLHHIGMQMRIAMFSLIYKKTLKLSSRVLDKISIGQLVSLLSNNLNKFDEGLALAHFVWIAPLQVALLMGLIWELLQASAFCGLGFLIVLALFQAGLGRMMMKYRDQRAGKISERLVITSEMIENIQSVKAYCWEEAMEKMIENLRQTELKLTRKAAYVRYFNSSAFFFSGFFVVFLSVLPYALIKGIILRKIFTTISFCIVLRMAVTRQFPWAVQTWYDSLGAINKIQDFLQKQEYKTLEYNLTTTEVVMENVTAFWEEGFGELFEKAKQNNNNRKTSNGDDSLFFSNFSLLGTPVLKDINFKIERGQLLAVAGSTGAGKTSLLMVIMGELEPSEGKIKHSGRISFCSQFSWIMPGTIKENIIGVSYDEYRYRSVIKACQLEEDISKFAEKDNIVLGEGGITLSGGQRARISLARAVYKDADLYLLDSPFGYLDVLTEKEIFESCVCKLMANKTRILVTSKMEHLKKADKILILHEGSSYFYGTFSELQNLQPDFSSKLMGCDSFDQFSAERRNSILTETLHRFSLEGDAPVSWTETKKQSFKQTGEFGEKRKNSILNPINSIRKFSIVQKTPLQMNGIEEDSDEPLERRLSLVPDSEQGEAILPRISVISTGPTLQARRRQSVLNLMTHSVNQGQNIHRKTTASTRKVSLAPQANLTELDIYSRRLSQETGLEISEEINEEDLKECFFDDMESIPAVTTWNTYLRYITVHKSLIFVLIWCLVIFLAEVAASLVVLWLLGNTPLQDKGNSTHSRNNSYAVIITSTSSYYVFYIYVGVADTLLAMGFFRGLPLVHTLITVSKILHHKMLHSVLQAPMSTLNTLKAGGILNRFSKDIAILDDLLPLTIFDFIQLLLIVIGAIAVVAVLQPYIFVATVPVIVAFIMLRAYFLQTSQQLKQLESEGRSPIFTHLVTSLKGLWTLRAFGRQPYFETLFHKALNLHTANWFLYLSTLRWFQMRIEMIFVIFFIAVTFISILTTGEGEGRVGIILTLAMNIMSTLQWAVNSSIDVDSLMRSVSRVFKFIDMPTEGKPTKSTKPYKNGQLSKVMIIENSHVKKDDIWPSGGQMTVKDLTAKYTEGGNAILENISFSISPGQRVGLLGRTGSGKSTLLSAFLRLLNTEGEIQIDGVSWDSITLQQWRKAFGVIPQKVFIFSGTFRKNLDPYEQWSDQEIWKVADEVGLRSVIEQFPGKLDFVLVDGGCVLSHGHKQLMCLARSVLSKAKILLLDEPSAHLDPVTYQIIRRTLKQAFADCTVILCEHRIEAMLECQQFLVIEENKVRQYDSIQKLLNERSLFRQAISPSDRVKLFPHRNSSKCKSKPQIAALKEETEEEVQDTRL

| EC50 [nM] | SMILES |
| --- | --- |
| > 2000 | CCOC(=O)c1nn(-c2cccc(C(=O)N(C)c3ccc4c(c3)OCO4)c2)c(C)c1Cl [compound 067, Ethyl 1-[3-[1,3-benzodioxol-5-yl(methyl)carbamoyl]phenyl]-4-chloro-5-methyl-pyrazole-3-carboxylate] |
| < 1000 | Cc1c(Cl)c(C(F)(F)F)nn1-c1cc(C(=O)N(C)c2ccc3c(c2)OCO3)ccn1 [compound 171, N-(1,3-Benzodioxol-5-yl)-2-[4-chloro-5-methyl-3-(trifluoromethyl)pyrazol-1-yl]-N-methyl-pyridine-4-carboxamide] |
| < 1000 | CN(C(=O)c1cccc(-n2nc(C(F)(F)F)cc2OCc2ccc(C(=O)O)cc2)c1)c1ccc2c(c1)OCC2 [compound 262, 4-[[2-[3-[2,3-Dihydrobenzofuran-6-yl(methyl)carbamoyl]phenyl]-5-(trifluoromethyl)pyrazol-3-yl]oxymethyl]benzoic acid] |
| > 2000 | COc1ccc(N(C)C(=O)c2cccc(-n3nc(C)c(Cl)c3C)c2)cc1OC [compound 014, 3-(4-Chloro-3,5-dimethyl-pyrazol-1-yl)-N-(3,4-dimethoxyphenyl)-N-methyl-benzamide] |
| > 2000 | Cc1nn(-c2cccc(C(=O)Nc3ccc4oc(C(C)C)nc4c3)c2)c(C)c1Cl [Int-061, 3-(4-Chloro-3,5-dimethyl-pyrazol-1-yl)-N-(2-isopropyl-1,3-benzoxazol-5-yl)benzamide] |
| < 1000 | CN(C(=O)c1cccc(-n2nc(C(F)(F)F)c(Cl)c2-c2ccccc2)c1)c1ccc2c(c1)OCO2 [compound 124, N-(1,3-Benzodioxol-5-yl)-3-[4-chloro-5-phenyl-3-(trifluoromethyl)pyrazol-1-yl]-N-methyl-benzamide] |
| < 1000 | Cc1nc2ccc(N(C)C(=O)c3cccc(-n4nc(C(F)(F)F)c(Cl)c4C4CC4)c3)cc2o1 [compound 137, 3-[4-Chloro-5-cyclopropyl-3-(trifluoromethyl)pyrazol-1-yl]-N-methyl-N-(2-methyl-3-benzoxazol-6-yl)benzamide] |
| < 1000 | Cc1c(Cl)c(C(F)(F)F)nn1-c1cccc(C(=O)N(C)c2ccc3c(c2)OCCO3)c1 [compound 096, 3-[4-Chloro-5-methyl-3-(trifluoromethyl)pyrazol-1-yl]-N-(2,3-dihydro-1,4-benzodioxin-6-yl)-N-methyl-benzamide] |
| < 1000 | CCN(C(=O)c1cccc(-n2nc(C(F)(F)F)c(Cl)c2C2CC2)c1)c1ccc2nc(C)oc2c1 [compound 135, 3-[4-Chloro-5-cyclopropyl-3-(trifluoromethyl)pyrazol-1-yl]-N-ethyl-N-(2-methyl-1,3-benzoxazol-6-yl)benzamide] |
| < 1000 | Cc1nn(-c2cccc(C(=O)N(C)c3cc4c(cc3Cl)OCCO4)c2)c(C)c1Cl [compound 032, N-(6-chloro-2,3-dihydro-1,4-benzodioxin-7-yl)-3-(4-chloro-3,5-dimethyl-pyrazol-1-yl)-N-methyl-benzamide] |
| < 1000 | COc1ccccc1-c1c(Cl)c(C(F)(F)F)nn1-c1cccc(C(=O)N(C)c2ccc3c(c2)OCO3)c1 [compound 183, N-(1,3-Benzodioxol-5-yl)-3-[4-chloro-5-(2-methoxyphenyl)-3-(trifluoromethyl)pyrazol-1-yl]-N-methyl-benzamide] |
| < 1000 | Cc1nc2cc(F)c(N(C)C(=O)c3cccc(-n4nc(C(F)(F)F)c(Cl)c4C)c3)cc2o1 [compound 154, 3-[4-Chloro-5-methyl-3-(trifluoromethyl)pyrazol-1-yl]-N-(5-fluoro-2-methyl-1,3-benzoxazol-6-yl)-N-methyl-benzamide] |
| 1000 to 2000 | Cc1ccc(C(=O)N(C)c2ccc3c(c2)OCO3)cc1-n1nc(C)c(Cl)c1C [compound 082, N-(1,3-Benzodioxol-5-yl)-3-(4-chloro-3,5-dimethyl-pyrazol-1-yl)-N,4-dimethyl-benzamide] |
| > 2000 | Cc1nn(-c2cccc(C(=O)N(C)c3ccc4oc(C(F)(F)F)nc4c3)c2)c(C)c1Cl [compound 078, 3-(4-Chloro-3,5-dimethyl-pyrazol-1-yl)-N-methyl-N-[2-(trifluoromethyl)-1,3-benzoxazol-5-yl]benzamide] |
| 1000 to 2000 | Cc1cc(C(F)(F)F)nn1-c1cccc(C(=O)N(C)c2ccc3c(c2)OCO3)c1 [compound 091, N-(1,3-Benzodioxol-5-yl)-N-methyl-3-[5-methyl-3-(trifluoromethyl)pyrazol-1-yl]benzamide] |
| < 1000 | COC(=O)C12CC(COc3cc(C(F)(F)F)nn3-c3cccc(C(=O)N(C)c4ccc5c(c4)OC(F)(F)O5)c3)(C1)C2 [compound 254, Methyl 3-[[2-[3-[(2,2-difluoro-1,3-benzodioxol-5-yl)-methyl-carbamoyl]phenyl]-5-(trifluoromethyl)pyrazol-3-yl]oxymethyl]bicyclo[1.1.1]pentane-1-carboxylate] |
| > 2000 | Cc1nn(-c2cccc(C(=O)N(C)c3ccc4oc(C(C)C)nc4c3)c2)c(C)c1Cl [compound 062, 3-(4-Chloro-3,5-dimethyl-pyrazol-1-yl)-N-(2-isopropyl-1,3-benzoxazol-5-yl)-N-methyl-benzamide] |

| EC50 [nM] | SMILES |
| --- | --- |
| > 2000 | Cc1nn(-c2cccc(C(=O)N(C)c3ccc4c(c3)OC(C)(C)O4)c2)c(C)c1Cl [compound 034, 3-(4-Chloro-3,5-dimethyl-pyrazol-1-yl)-N-(2,2-dimethyl-1,3-benzodioxol-5-yl)-N-methyl-benzamide] |
| > 2000 | CN(C(=O)c1cccc(-n2cc(Cl)cn2)c1)c1ccc2c(c1)OCCO2 [compound 033, 3-(4-Chloropyrazol-1-yl)-N-(2,3-dihydro-1,4-benzodioxin-6-yl)-N-methyl-benzamide] |
| < 1000 | [2H]C([2H])([2H])N(C(=O)c1cccc(-n2nc(C(F)(F)F)c(Cl)c2COc2ccc(C(=O)OC(C)(C)C)cc2)c1)c1ccc2c(c1)OC(F)(F)O2 [compound 181, Tert-butyl 4-[[4-chloro-2-[3-[(2,2-difluoro-1,3-benzodioxol-5-yl)-(trideuteriomethyl)carbamoyl]phenyl]-5-(trifluoromethyl)pyrazol-3-yl]methoxy]benzoate] |
| > 2000 | Cc1nn(-c2cccc(C(=O)N(C)c3ccc4c(c3)OCO4)c2)c(C(=O)N(C)C)c1Cl [compound 088, 2-[3-[1,3-benzodioxol-5-yl(methyl)carbamoyl]phenyl]-4-chloro-N,N,5-trimethyl-pyrazole-3-carboxamide] |
| > 2000 | Cc1c(Cl)c(C(F)(F)F)nn1-c1cccc(C(=O)Nc2ccc3c(c2)OCO3)c1 [compound 128, N-(1,3-Benzodioxol-5-yl)-3-[4-chloro-5-methyl-3-(trifluoromethyl)pyrazol-1-yl]benzamide] |
| > 2000 | O=C(O)c1ccc(OCc2c(Cl)c(C(F)(F)F)nn2-c2cccc(C(=O)Nc3ccc4c(c3)OC(F)(F)O4)c2)cc1 [compound 174, 4-[[4-Chloro-2-[3-[(2,2-difluoro-1,3-benzodioxol-5-yl)carbamoyl]phenyl]-5-(trifluoromethyl)pyrazol-3-yl]methoxy] benzoic acid] |
| < 1000 | Cc1nc2ccc(NC(=O)c3cccc(-n4nc(C(F)(F)F)c(Cl)c4C4CC4)c3)cc2o1 [Int-136, 3-[4-Chloro-5-cyclopropyl-3-(trifluoromethyl)pyrazol-1-yl]-N-(2-methyl-1,3-benzoxazol-6-yl)benzamide] |
| > 2000 | Cc1cc(C(=O)O)nn1-c1cccc(C(=O)N(C)c2ccc3c(c2)OCO3)c1 [compound 066, 1-[3-[1,3-Benzodioxol-5-yl(methyl)carbamoyl]phenyl]-5-methyl-pyrazole-3-carboxylic acid] |
| > 2000 | Cc1c(Cl)c(C(F)(F)F)nn1-c1cccc(C(=O)N(C)c2ccc3c(c2C(=O)O)OCO3)c1 [compound 208, 5-[[3-[4-chloro-5-methyl-3-(trifluoromethyl)pyrazol-1-yl]benzoyl]-methyl-amino]-1,3-benzodioxole-4-carboxylic acid] |
| 1000 to 2000 | Cc1nn(-c2cccc(S(=O)(=O)N(C)c3ccc4c(c3)OCCO4)c2)c(C)c1Cl [compound 020, 3-(4-chloro-3,5-dimethyl-pyrazol-1-yl)-N-(2,3-dihydro-1,4-benzodioxin-6-yl)-N-methyl-benzenesulfonamide] |
| < 1000 | CN(C(=O)c1cccc(-n2nc(C(F)(F)F)c(Cl)c2OCc2ccc(C(=O)O)cc2)c1)c1ccc2c(c1)OC(F)(F)O2 [compound 211, 4-[[4-Chloro-2-[3-[(2,2-difluoro-1,3-benzodioxol-5-yl)-methyl-carbamoyl]phenyl]-5-(trifluoromethyl)pyrazol-3-yl]oxymethyl]benzoic acid] |
| < 1000 | Cc1cc2cc(N(C)C(=O)c3cccc(-n4nc(C(F)(F)F)c(Cl)c4COc4ccc(C(=O)O)cc4)c3)ccn2n1 [compound 239, 4-[[4-Chloro-2-[3-[methyl-(2-methylpyrazolo[1,5-a]pyridin-5-yl)carbamoyl]phenyl]-5-(trifluoromethyl)pyrazol-3-yl]methoxy]benzoic acid] |
| < 1000 | CCc1nn(-c2cccc(C(=O)N(C)c3ccc4c(c3)OCO4)c2)c(CC)c1Cl [compound 092, N-(1,3-Benzodioxol-5-yl)-3-(4-chloro-3,5-diethyl-pyrazol-1-yl)-N-methyl-benzamide] |
| > 2000 | Cc1c(N(C)C(=O)c2cccc(-n3nc(C(F)(F)F)c(Cl)c3C)c2)ccc2c1OCO2 [compound 269, 3-[4-chloro-5-methyl-3-(trifluoromethyl)pyrazol-1-yl]-N-methyl-N-(4-methyl-1,3-benzodioxol-5-yl)benzamide] |
| < 1000 | COCc1c(Cl)c(C)nn1-c1cccc(C(=O)N(C)c2ccc3c(c2)OCO3)c1 [compound 107, N-(1,3-benzodioxol-5-yl)-3-[4-chloro-5-(methoxymethyl)-3-methyl-pyrazol-1-yl]-N-methyl-benzamide] |
| > 2000 | Cc1nn(-c2cccc(C(=O)N(c3ccc4c(c3)OCCO4)C3CC3)c2)c(C)c1Cl [compound 030, 3-(4-Chloro-3,5-dimethyl-pyrazol-1-yl)-N-cyclopropyl-N-(2,3-dihydro-1,4-benzodioxin-6-yl)benzamide] |
